Earlier results in patent publication US20160213008A1, “ULTRASONIC MICRO-DROPLET RELEASE OF MATRIX BOUND FOOD DERIVED ANTIMICROBIALS” (priority 2015, published 2016).

Settings: Cavallito and colleagues 1944

In the case of `C=CCSSC=CC[S+]([O-])CC=C` (mixture of isomers) [Ajoene], the “antibacterial and antifungal / antimicrobial activity” value is listed as “shows antimicrobial properties”.
In the case of `C=CCS[S+]([O-])CC=C` (centres unmarked) [allicin], the “antibacterial and antifungal / antimicrobial activity” value is given as “attributable”.
